Assay [1] concerns the target T1, rat brain N-type calcium channel subunits (α1B+α2δ+β1b cDNA subunits) (Rattus norvegicus, UniProt Q02294).
T1 construct: expressed in transfected cells
Nature of the assay: N-type calcium channel block, whole cell patch clamp in HEK 293 cells. Format: cell-based. Conditions: holding potential −80 mV to +10 mV. On the procedure:
N-type calcium channel blocking activity was assayed in human embryonic kidney cells, HEK 293, stably transfected with the rat brain N-type calcium channel subunits (α1B+α2δ+β1b cDNA subunits). Alternatively, N-type calcium channels (α1B+α2δ+β1b cDNA subunits), L-type channels (α1C+α2δ+β1b cDNA subunits) and P/Q-type channels (α1A+α2δ+β1b cDNA subunits) were transiently expressed in HEK 293 cells. Briefly, cells were cultured in Dulbecco's modified eagle medium (DMEM) supplemented with 10% fetal bovine serum, 200 U/ml penicillin and 0.2 mg/ml streptomycin at 37° C. with 5% CO2. At 85% confluency cells were split with 0.25% trypsin/1 mM EDTA and plated at 10% confluency on glass coverslips. At 12 hours the medium was replaced and the cells transiently transfected using a standard calcium phosphate protocol and the appropriate calcium channel cDNA's. Fresh DMEM was supplied and the cells transferred to 28° C./5% CO2. Cells were incubated for 1 to 2 days prior to whole cell recording.
Whole cell patch clamp experiments were performed using an Axopatch 200B amplifier (Axon Instruments, Burlingame, Calif.) linked to a personal computer equipped with pCLAMP software. The external and internal recording solutions contained, respectively, 5 mM BaCl2, 10 mM MgCl2, 10 mM HEPES, 40 mM TEAC1, 10 mM glucose, 87.5 mM CsCl (pH 7.2) and 108 mM CsMS, 4 mM MgCl2, 9 mM EGTA, 9 mM HEPES (pH 7.2). Currents were typically elicited from a holding potential of −80 mV to +10 mV using Clampex software (Axon Instruments). Typically, currents were first elicited with low frequency stimulation (0.067 Hz) and allowed to stabilize prior to application of the compounds. The compounds were then applied during the low frequency pulse trains for two to three minutes to assess tonic block, and subsequently the pulse frequency was increased to 0.2 Hz to assess frequency dependent block. Data were analyzed using Clampfit (Axon Instruments) and SigmaPlot 4.0 (Jandel Scientific).

Assay [2] has as its target T2, human DiG T-type channels (Homo sapiens, UniProt O43497).
T2 construct: expressed in transfected cells
Nature of the assay: T-type calcium channel block, whole-cell patch clamp in HEK cell lines. The format is cell-based. On the procedure:
Standard patch-clamp techniques were employed to identify blockers of T-type currents. Briefly, previously described HEK cell lines stably expressing human DiG T-type channels were used for all the recordings (passage #: 4-20, 37° C., 5% CO2). To obtain T-type currents, plastic dishes containing semi-confluent cells were positioned on the stage of a ZEISS AXIOVERT S100 microscope after replacing the culture medium with external solution (see below). Whole-cell patches were obtained using pipettes (borosilicate glass with filament, O.D.: 1.5 mm, I.D.: 0.86 mm, 10 cm length), fabricated on a SUTTER P-97 puller with resistance values of ˜5 MΩ (see below for internal solution).
In the non-inactivating protocol, the holding potential is set at −110 mV and with a pre-pulse at −100 mV for 1 second prior to the test pulse at −40 mV for 50 ms. […]
Test compounds were dissolved in external solution, 0.1-0.01% DMSO. After ˜10 min rest, they were applied by gravity close to the cell using a WPI microfil tubing. The “non-inactivated” pre-pulse was used to examine the resting block of a compound. The “inactivated” protocol was employed to study voltage-dependent block. However, the initial data shown below were mainly obtained using the non-inactivated protocol only. IC50 values are shown for various compounds of the invention in Table 5.

A further assay deals with rat formalin model. Nature of the assay: Formalin-induced pain model (paw flinches). Format: in vivo. As to conditions: 30 mg/kg IP, 10 min before formalin, ±SEM, saline control=100%. On the procedure: The effects of intrathecally delivered compounds of the invention on the rat formalin model were measured. The compounds were reconstituted to stock solutions of approximately 10 mg/ml in propylene glycol. Eight Holtzman male rats of 275-375 g size were randomly selected per test article.
The following study groups were used, with test article, vehicle control (propylene glycol) and saline delivered intraperitoneally (IP):
Prior to initiation of drug delivery baseline behavioral and testing data were taken.
On the morning of testing, a small metal band (0.5 g) was loosely placed around the right hind paw. The rat was placed in a cylindrical Plexiglas chamber for adaptation a minimum of 30 minutes. Test Article or Vehicle Control Article was administered 10 minutes prior to formalin injection (50 μl of 5% formalin) into the dorsal surface of the right hind paw of the rat. The animal was then placed into the chamber of the automated formalin apparatus where movement of the formalin injected paw was monitored and the number of paw flinches tallied by minute over the next 60 minutes (Malmberg, A. B., et al., Anesthesiology (1993) 79:270-281).
Results are presented as Maximum Possible Effect ±SEM, where saline control=100%.

The test system of assay [3] is SNL rats, tactile allodynia. Nature of the assay: Spinal nerve ligation (SNL) model of neuropathic pain, tactile allodynia (von Frey filaments). Conditions: rat SNL, 30 mg/kg orally in propylene glycol. The format is in vivo. The text has this: (§1) Spinal nerve ligation (SNL) injury was induced using the procedure of Kim and Chung, (Kim, S. H., et al., Pain (1992) 50:355-363) in male Sprague-Dawley rats (Harlan; Indianapolis, Ind.) weighing 200 to 300 grams. Anesthesia was induced with 2% halothane in O2 at 2 L/min and maintained with 0.5% halothane in O2. After surgical preparation of the rats and exposure of the dorsal vertebral column from L4 to S2, the L5 and L6 spinal nerves were tightly ligated distal to the dorsal root ganglion using 4-0 silk suture. The incision was closed, and the animals were allowed to recover for 5 days. […] Sham control rats underwent the same operation and handling as the experimental animals, but without SNL.
The assessment of tactile allodynia consisted of measuring the withdrawal threshold of the paw ipsilateral to the site of nerve injury in response to probing with a series of calibrated von Frey filaments. Each filament was applied perpendicularly to the plantar surface of the ligated paw of rats kept in suspended wire-mesh cages. Measurements were taken before and after administration of drug or vehicle. Withdrawal threshold was determined by sequentially increasing and decreasing the stimulus strength (“up and down” method), analyzed using a Dixon non-parametric test (Chaplan, S. R., et al., J Pharmacol Exp Ther (1994) 269:1117-1123), and expressed as the mean withdrawal threshold.
(§2) Compound 1 was administered orally in propylene glycol solution at a dose of 30 mg/kg. The percent activity was calculated for block of tactile allodynia, thermal hyperalgesia and analgesia.

The test system of assay [4] is SNL rats, thermal hyperalgesia / anti nociception. Nature of the assay: Spinal nerve ligation (SNL) model of neuropathic pain, paw-withdrawal latency to thermal stimulus (Hargreaves). The format is in vivo. As to conditions: rat SNL, 30 mg/kg orally in propylene glycol.
Description: as §1
The method of Hargreaves and colleagues (Hargreaves, K., et al., Pain (1988) 32:77-88) was employed to assess paw-withdrawal latency to a thermal nociceptive stimulus. Rats were allowed to acclimate within a Plexiglas enclosure on a clear glass plate maintained at 30° C. A radiant heat source (i.e., high intensity projector lamp) was activated with a timer and focused onto the plantar surface of the affected paw of nerve-injured or carrageenan-injected rats. Paw-withdrawal latency was determined by a photocell that halted both lamp and timer when the paw was withdrawn. The latency to withdrawal of the paw from the radiant heat source was determined prior to carrageenan or […], 3 hours after carrageenan or 7 days after L5/L6 SNL but before drug and after drug administration. A maximal cut-off of 40 seconds was employed to prevent tissue damage. Paw withdrawal latencies were thus determined to the nearest 0.1 second. Reversal of thermal hyperalgesia was indicated by a return of the paw withdrawal latencies to the pre-treatment baseline latencies (i.e., 21 seconds). Anti nociception was indicated by a significant (p<0.05) increase in paw withdrawal latency above this baseline. Data were converted to % anti hyperalgesia or % anti nociception by the formula: (100×(test latency−baseline latency)/(cut-off−baseline latency) where cut-off was 21 seconds for determining anti hyperalgesia and 40 seconds for determining anti nociception.
as §2

Assay [5] relates to T-type over L-type channels. Conditions: literature (Heady et al. 2001); cited from earlier work.
Setting [6] is: low frequency stimulation 0.067 Hz (tonic block), read-out: IC50 @ 0.067 Hz.
Where [7] appears, read: pulse frequency 0.2 Hz (frequency dependent block), read-out: IC50 @ 0.2 Hz.
[8] abbreviates: inactivation protocol, @ −80 mV, read-out: IC50 @ −80 mV.
Setting [9] is: non-inactivating protocol, pre-pulse −100 mV, test pulse −40 mV, read-out: IC50 @ −100 mV.

pIC50: −log10 of the molar value. Read-outs that look alike come from different tables or passages of the source.

T2 sequence (O43497 whole entry): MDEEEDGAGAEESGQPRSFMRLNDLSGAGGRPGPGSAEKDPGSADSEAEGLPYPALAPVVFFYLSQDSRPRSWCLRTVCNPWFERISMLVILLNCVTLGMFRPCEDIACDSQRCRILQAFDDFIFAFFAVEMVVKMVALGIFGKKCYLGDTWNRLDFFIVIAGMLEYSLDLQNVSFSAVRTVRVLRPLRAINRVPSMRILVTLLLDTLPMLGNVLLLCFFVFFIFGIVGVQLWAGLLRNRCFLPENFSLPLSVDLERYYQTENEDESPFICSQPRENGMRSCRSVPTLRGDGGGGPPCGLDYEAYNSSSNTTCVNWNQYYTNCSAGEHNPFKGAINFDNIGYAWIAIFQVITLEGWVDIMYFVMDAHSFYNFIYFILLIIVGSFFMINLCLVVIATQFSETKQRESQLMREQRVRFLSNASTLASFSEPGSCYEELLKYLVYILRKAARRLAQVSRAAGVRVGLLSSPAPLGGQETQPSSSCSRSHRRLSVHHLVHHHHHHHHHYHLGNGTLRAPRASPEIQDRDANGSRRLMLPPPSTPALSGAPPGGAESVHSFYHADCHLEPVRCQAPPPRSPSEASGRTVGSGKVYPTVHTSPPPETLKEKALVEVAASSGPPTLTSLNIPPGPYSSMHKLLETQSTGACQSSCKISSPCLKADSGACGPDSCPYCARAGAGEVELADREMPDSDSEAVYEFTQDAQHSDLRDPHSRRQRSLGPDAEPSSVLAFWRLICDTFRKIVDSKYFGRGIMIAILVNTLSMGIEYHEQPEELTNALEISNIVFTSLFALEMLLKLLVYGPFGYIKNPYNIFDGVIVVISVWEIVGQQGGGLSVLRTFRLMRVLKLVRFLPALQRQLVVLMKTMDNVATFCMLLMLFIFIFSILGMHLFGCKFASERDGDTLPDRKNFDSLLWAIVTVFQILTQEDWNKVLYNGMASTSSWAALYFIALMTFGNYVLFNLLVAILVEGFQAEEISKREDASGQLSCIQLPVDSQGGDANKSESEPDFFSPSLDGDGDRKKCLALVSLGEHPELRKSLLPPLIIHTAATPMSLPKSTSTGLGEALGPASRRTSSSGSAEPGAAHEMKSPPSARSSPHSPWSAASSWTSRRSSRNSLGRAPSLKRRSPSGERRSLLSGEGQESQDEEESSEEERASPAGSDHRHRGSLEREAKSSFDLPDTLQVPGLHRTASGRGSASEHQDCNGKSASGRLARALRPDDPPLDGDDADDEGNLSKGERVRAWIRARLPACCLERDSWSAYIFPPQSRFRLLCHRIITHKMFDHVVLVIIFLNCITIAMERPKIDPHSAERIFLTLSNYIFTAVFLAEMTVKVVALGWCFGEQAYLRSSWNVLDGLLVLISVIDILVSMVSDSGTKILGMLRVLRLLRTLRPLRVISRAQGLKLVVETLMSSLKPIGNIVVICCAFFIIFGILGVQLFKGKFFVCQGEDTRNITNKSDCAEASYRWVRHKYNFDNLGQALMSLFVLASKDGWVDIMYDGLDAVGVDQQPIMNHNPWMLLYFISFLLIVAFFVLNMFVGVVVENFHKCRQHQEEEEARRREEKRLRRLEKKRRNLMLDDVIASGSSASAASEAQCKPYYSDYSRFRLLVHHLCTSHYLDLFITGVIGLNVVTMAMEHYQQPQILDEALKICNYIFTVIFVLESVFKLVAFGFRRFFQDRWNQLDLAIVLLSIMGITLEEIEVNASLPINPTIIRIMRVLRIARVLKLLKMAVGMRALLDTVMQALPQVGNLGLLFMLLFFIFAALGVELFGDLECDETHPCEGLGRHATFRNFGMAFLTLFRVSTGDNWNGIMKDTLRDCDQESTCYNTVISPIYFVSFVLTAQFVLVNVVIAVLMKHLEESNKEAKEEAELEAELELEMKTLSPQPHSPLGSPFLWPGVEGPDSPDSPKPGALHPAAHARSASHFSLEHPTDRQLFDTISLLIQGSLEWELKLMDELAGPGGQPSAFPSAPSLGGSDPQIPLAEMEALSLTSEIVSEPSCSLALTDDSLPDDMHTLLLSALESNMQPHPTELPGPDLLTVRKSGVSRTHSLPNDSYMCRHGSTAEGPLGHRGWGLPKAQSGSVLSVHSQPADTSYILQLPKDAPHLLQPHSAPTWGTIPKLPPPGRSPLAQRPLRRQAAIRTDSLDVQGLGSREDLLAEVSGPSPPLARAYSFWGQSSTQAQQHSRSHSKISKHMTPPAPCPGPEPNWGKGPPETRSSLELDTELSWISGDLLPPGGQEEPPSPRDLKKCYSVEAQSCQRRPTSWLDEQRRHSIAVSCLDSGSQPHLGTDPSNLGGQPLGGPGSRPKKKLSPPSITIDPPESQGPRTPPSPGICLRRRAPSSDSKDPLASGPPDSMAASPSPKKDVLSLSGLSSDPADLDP

Take `O=C(NC(c1ccccc1)c1ccccc1)N1CCN(C(c2ccccc2)c2ccccc2)CC1` [Compound 1, 4-Benzhydryl-piperazine-1-carboxylic acid benzhydryl-amide]: the pIC50 in assay [1] (setting [6]) was 6.70; in assay [1] (setting [7]) it was 6.82; in assay [2] (setting [8]) it was 6.64; in assay [2] (setting [9]) it was 6.23. For the same compound, the “Phase I (% MPE)” value with rat formalin model is 58 ± 15 % MPE. In addition, the “Phase II Total (% MPE)” value with rat formalin model is listed as 75 ± 12 % MPE. Also, the “Phase IIA (% MPE)” value with rat formalin model came to 65 ± 12 % MPE. The “Phase IIB (% MPE)” value in the assay on rat formalin model was determined as 99 ± 15 % MPE. The “Tactile Allodynia (% Activity)” value in assay [3] (30 min) is 35.77 ± 10.38 % Activity; in assay [3] (60 min), 80.89 ± 13.30 % Activity; in assay [3] (90 min), 35.49 ± 9.01 % Activity; in assay [3] (120 min), 19.61 ± 6.78 % Activity; in assay [3] (150 min), 1.98 ± 1.42 % Activity. In addition, the “Analgesia (% Activity)” value in assay [4] (30 min) came out at 82.47 ± 10.11 % Activity; in assay [4] (60 min) it was 88.95 ± 8.30 % Activity; in assay [4] (90 min), 9.02 ± 5.66 % Activity; in assay [4] (120 min), 0.00 ± 0.00 % Activity. Further, the “Thermal Hyperalgesia (% Activity)” value in assay [4] (30 min) was 46.98 ± 15.09 % Activity; in assay [4] (60 min), 97.86 ± 2.14 % Activity; in assay [4] (90 min) it was 49.07 ± 10.17 % Activity; in assay [4] (120 min) it was 33.36 ± 10.62 % Activity.
With `COCC(=O)O[C@]1(CCN(C)CCCc2nc3ccccc3[nH]2)CCc2cc(F)ccc2[C@@H]1C(C)C` [Mibefradil], the “selective for T-type over L-type channels” value in assay [5] is on record as 10-30 fold.
For the compound `O=C(NC(c1ccccc1)c1ccccc1)N1CCN(C(c2ccccc2)c2cccc(Cl)c2)CC1` (centres unmarked) [Compound 5, 4-[(3-Chloro-phenyl)-phenyl-methyl]-piperazine-1-carboxylic acid benzhydryl-amide], the negative-log IC50 (pIC50) in assay [1] (setting [6]) was 6.41. Further, the pIC50 in assay [1] (setting [7]) is 6.47. In assay [2] (setting [8]), the negative-log IC50 (pIC50) is 7.28. Besides, the pIC50 in assay [2] (setting [9]) is 6.62. In the assay with rat formalin model, the “Phase I (% MPE)” value is 54 ± 11 % MPE, the “Phase II Total (% MPE)” value is reported as 65 ± 10 % MPE, the “Phase IIA (% MPE)” value is listed as 52 ± 10 % MPE and the “Phase IIB (% MPE)” value is 105 ± 13 % MPE.
As to `O=C(NC(c1ccccc1)c1ccccc1)N1CCN(C(c2ccccc2)c2ccccc2Cl)CC1` (centres unmarked) [Compound 6, 4-[(2-Chloro-phenyl)-phenyl-methyl]-piperazine-1-carboxylic acid benzhydryl-amide], the pIC50 in assay [1] (setting [6]) was 6.55. The pIC50 in assay [1] (setting [7]) is 6.74. Also, the pIC50 in assay [2] (setting [8]) was 7.33. Moreover, the pIC50 in assay [2] (setting [9]) is 6.83. Besides, in the assay with rat formalin model, the “Phase I (% MPE)” value stood at 53 ± 10 % MPE, the “Phase II Total (% MPE)” value came out at 71 ± 7 % MPE, the “Phase IIA (% MPE)” value was determined as 63 ± 9 % MPE and the “Phase IIB (% MPE)” value is listed as 99 ± 5 % MPE.

(Values after US7649092B2, “Urea derivatives as calcium channel blockers” (Neuromed Pharmaceuticals Ltd., priority 2004, dated 2010).)
